Measurements as given in patent publication US20020040053A1, “Antioxidant containing vitamin E metabolite” (priority 2000, published 2002).

Legend:
[1] = 500IU RRR-α-tocopherol administered to human subject; cited from earlier work
[2] = test system: LDL; test: Oxidative degeneration LDL assay using azo-compound (V-70); type: biochemical, human; conditions: for anti-oxidative activity on LDL (lag-time): added to LDL concentration-dependently, final concentration 60-1000 ng; for lag-time (time during which conjugate diene production was inhibited): final concentration 1 μg, LDL from eight male and female adults, V-70 200 μM, about 70 μg/mL LDL protein, control 88.1±29.4 minutes
Procedure: Blood collected from human subject was centrifuged at 3000 rpm for 10 minutes to isolate plasma. Next, KBr was added to 1.1 mL of the plasma which was then subjected to density gradient ultra-centrifugation (Single spin differential centrifugation) to collect LDL. After the determination of protein concentration, LDL was prepared by PBS.
In vitro assay of oxidatively denatured LDL was performed according to the method described by Kondo, et al. This method involves use of 2,2′-azobis([…]-2,4-dimethylvaleronitrile; V-70) as the oxidation starter. Final concentration of V-70 was 200 μM for about 70 μg/mL of LDL protein concentration, and production of the conjugate dienes of LDL was assayed at 234 nm for 300 minutes. The time during which conjugate diene production was inhibited was indicated as lag-time. The efficacy of each antioxidants was evaluated by adding the compound and V-70 at the same time and determining the lag-time caused by the compound.

SMILES	plasma α-CEHC concentration [1] [pmol/mL]	anti-oxidative activity on LDL (lag-time) [2]	lag-time (time during which conjugate diene production was inhibited) [2] [min]	extension rate of lag-time (control = 1), FIG. 1 ([2]; final concentration 60 ng, close to 200 pmol/mL (lower concentration))	anti-oxidative effects on LDL, comparison between compounds ([2]; final concentration 1 μg (higher concentration))
Cc1c(C)c2c(c(C)c1O)CC[C@@](C)(CCC[C@H](C)CCC[C@H](C)CCCC(C)C)O2 [RRR-α-tocopherol]	200				
Cc1c(C)c2c(c(C)c1O)CCC(C)(CCC(=O)O)O2 (stereo not drawn) [α-CEHC, 2,5,7,8-Tetramethyl-2-(β-carboxyethyl)-6-hydroxychromane]		prolonged lag-times concentration-dependently	190.8 ± 65.1		
Cc1c(O)cc2c(c1C)OC(C)(CCC(=O)O)CC2 (stereo not drawn) [γ-CEHC, 2,7,8-trimethyl-2-(β-carboxyethyl)-6-hydroxychromane]		prolonged lag-times concentration-dependently	263.1 ± 114.8	greater increase in extension rate of lag-time than those of α-CEHC and Trolox groups	significantly stronger anti-oxidative effects on LDL than α-CEHC did
